{"source": "patent US9248124B2", "about": "“Use of inhibitors of IκB kinase for the treatment of cancer” (Millennium Pharmaceuticals, Inc., priority 2001, dated 2016)", "type_in_all_cases": "cell-based, human", "key": {"[1]": {"test_system": "IκBα phosphorylation and degradation in patient MM cells", "assay": "Immunoblot of IκBα phosphorylation and degradation triggered by TNFα in patient cells", "settings": "10 μM for 90 min, TNFα 5 ng/mL, FIG. 1C", "procedure": "Dex-sensitive (MM.1S) human MM cell line was kindly provided by Dr. Steven Rosen (Northwestern University, Chicago, Ill.). RPMI8226 and U266 human MM cells were obtained from American Type Culture Collection (Rockville, Md.). All MM cell lines cultured in RPMI-1640 containing 10% fetal bovine serum (FBS, Sigma Chemical Co., St. Louis, Mo.), […], 100 U/mL penicillin (Pen) and 100 μg/mL streptomycin (Strep) (GIBCO, Grand Island, N.Y.). Patient MM cells were purified from patient BM aspirates using RosetteSep separation system (StemCell Technologies, Vancouver, Canada). The purity of MM cells was confirmed by flow cytometry using PE-conjugated anti-CD138 antibody (Beckton Dickinson Co.).\nMM cells were cultured with PS-341 or compound 1; harvested; washed; and lysed using lysis buffer: 50 mM Tris-HCl (pH 7.4), 150 mM NaCl, 1% NP-40, 5 mM EDTA, 5 mM NaF, 2 mM Na3VO4, 1 mM PMSF, 5 μg/mL leupeptin, and 5 μg/mL aprotinin. For detection of phospho-IκBα, IκBα, phospho-MAPK, phospho-STAT3, ERK2 or alpha-tubulin, cell lysates were subjected SDS-PAGE, transferred to PVDF membrane (Bio-Rad Laboratories, Hercules, Calif.), and immunoblotted with anti-phospho-IκBα, -IκBα, -phospho-MAPK, or -phospho-STAT3 Abs (Cell Signaling, Beverly, Mass.), and anti-alpha-tubulin (Sigma) Abs.\nInhibition of IκBα phosphorylation by compound 1 was assayed in MM.1S and patient MM cells triggered by TNFα. […]"}, "Akt phosphorylation": {"test_system": "Akt phosphorylation", "assay": "Phosphorylation of Akt triggered by IL-6 in MM.1S cells", "settings": "compound 1 pre-treatment, data not shown"}, "[2]": {"test_system": "ICAM-1 expression on MM.1S and RPMI8226 cells", "assay": "Flow cytometry of TNFα-induced ICAM-1 expression on MM cells", "settings": "TNFα 5 ng/mL, compound 1 10 μM, 24 h, FIG. 10", "procedure": "For cell cycle analysis, MM cells cultured for 24-48 h in compound 1 (10 μM), Dex (1 μM); IL-6 (20 ng/mL), or control media were harvested, washed with phosphate-buffered saline (PBS), fixed with 70% ethanol, and treated with 10 μg/mL of RNase (Roche Diagnostics Corp., Indianapolis, Ind.). Cells were then stained with propidium iodine (PI, Sigma) (5 μg/mL). For detection of ICAM-1 expression, MM cells cultured in TNFα (5 ng/mL) in the presence or absence of compound 1 (10 μM) were harvested, washed with PBS, and stained with mouse IgG isotype control or FITC-conjugated mouse anti-human CD54 Ab. Both cell cycle profile and ICAM-1 expression were determined using an Epics (Coulter Immunology, Hialeah, Fla.) flow cytometer, as in prior studies (Hideshima et al., Oncogene 20:4519 (2001))."}, "IL-6 secretion in BMSCs": {"test_system": "IL-6 secretion in BMSCs", "assay": "IL-6 secretion in BMSC cultures with or without MM.1S cells (ELISA)", "settings": "0.4-10 μM, 48 h, dose dependent; FIG. 12A", "source_text": "BM specimens were obtained from patients with MM. Mononuclear cells (MNCs) separated by Ficoll-Hipaque density sedimentation were used to established long-term BM cultures, as previously described (Uchiyama et al., Blood 82:3712-3720 (1993)). When an adherent cell monolayer had developed, cells were harvested in Hank's Buffered Saline Solution (HBSS) containing 0.25% trypsin and 0.02% EDTA, washed, and collected by centrifugation.\n(§1) To evaluate growth stimulation and signaling in MM cells adherent to BMSCs, 3×10^4 MM.1S cells were cultured in BMSC coated 96-well plates for 48 h, in the presence or absence of compound 1. DNA synthesis was measured as described above. The Duoset ELISA (R&D System) was used to measure IL-6 in supernatants of 48 h cultures of BMSCs with or without MM.1S cells, in the presence or absence of compound 1."}, "[3]": {"test_system": "MM.1S cells adherent to BMSCs", "assay": "Paracrine MM.1S cell growth on BMSCs ([3H]-TdR uptake)", "settings": "0.4-10 μM, 48 h, dose dependent; FIG. 12B", "procedure": "Proliferation was measured as previously described (Hideshima et al., Blood 96:2943 (2000)). MM cells (3×10^4 cells/well) were incubated in 96-well culture plates (Costar, Cambridge, Mass.) in the presence of media, PS-341, compound 1 and/or Dex or recombinant human IL-6 (Genetics Institute, Cambridge, Mass.) for 48 h at 37° C. DNA synthesis was measured by [^3H]-thymidine ([^3H]-TdR, NEN Products, Boston, Mass.) uptake. Cells were pulsed with [^3H]TdR (0.5 μCi/well) during the last 8 h of 48 h cultures. All experiments were performed in triplicate.\nas §1"}}}
{"compound": "O=C(Nc1cc(Cl)cc2c1[nH]c1cnccc12)c1cccnc1", "note": "[compound 1, N-(6-chloro-9H-β-carbolin-8-yl)-nicotinamide]", "values": [{"measurement": "phosphorylation and degradation of IκBα triggered by TNFα", "setting": "[1]", "value": "inhibited"}, {"measurement": "Phosphorylation of Akt triggered by IL-6", "setting": "Akt phosphorylation", "value": "unaffected"}, {"measurement": "TNFα-induced upregulation of ICAM-1 expression", "setting": "[2]", "value": "inhibits"}, {"measurement": "constitutive secretion of IL-6 in BMSCs", "setting": "IL-6 secretion in BMSCs", "value": "blocks"}, {"measurement": "increased IL-6 secretion triggered by adhesion of MM.1S cells to BMSCs", "setting": "IL-6 secretion in BMSCs", "value": "blocks"}, {"measurement": "increased MM.1S cell growth triggered by adherence to BMSCs", "setting": "[3]", "value": "inhibits"}]}
